# Experimental data reported in patent EP1500403A1, “PREVENTIVE/REMEDY FOR DIABETES” (Ajinomoto Co., Inc., priority 2002, dated 2003).
# Tests used:
# glucose-loaded mice = experiment: Blood glucose time course after oral glucose loading in KK mice (Example II); format: in vivo; conditions: glucose 1 g/kg p.o.; for increase of blood glucose / hyperglycemia 30 minutes after glucose loading: metformin 200 mg/kg or inhibitor A 30 mg/kg p.o.; for pattern of glycemic suppression at elevated dose: metformin 300 mg/kg or inhibitor A 45 mg/kg p.o., vs lower dose (Fig. 3)
# Description: KK mice (age of 25 weeks; male) fed with a commercially available high-calories feed for breeding (CMF; Oriental Yeast) were divided into groups with matched body weights. After starvation for 17 hours, glucose was orally given at 1 g/kg. Immediately thereafter, the inhibitor A of renal glucose reabsorption (30 mg/kg or 45 mg/kg) or metformin (200 mg/kg or 300 mg/kg) was orally given. Additionally, a group given with the inhibitor A of renal glucose reabsorption (30 mg/kg) and metformin (200 mg/kg) was prepared. A vehicle was orally given to a control group after glucose dosing.
# Blood glucose level was assayed in a time course.
# [1] = test system: Type 2 diabetic model GK rats; experiment: Blood glucose after repeated once daily dosing in GK rats (Example III); format: in vivo; conditions: once daily p.o., day 25, glibenclamide 3 mg/kg, inhibitor A 30 mg/kg, or both, vs vehicle-dosed group (Fig. 4)
# Description: These agents were orally given once daily at the same time period as in the group administered with a single one agent. Only a vehicle was given orally to a control group. On day 25 after the start of administration, blood glucose was assayed sequentially, to compare the groups in terms of the resulting blood glucose levels.
# glucose-loaded rats = experiment: Blood glucose time course after oral glucose loading in rats (Example I); format: in vivo; conditions: Wistar rats, glucose 1 g/kg p.o.
# Description: Wistar rats (age of 7 weeks; male) were divided into groups with matched body weights. After 17-hour starvation, glucose was orally given at 1 g/kg to the animals. Immediately after the administration, the inhibitor A of renal glucose reabsorption or the inhibitor B of renal glucose reabsorption (A at 30 mg/kg or 60 mg/kg; B at 30 mg/kg or 80 mg/kg) or glibenclamide (1 mg/kg or 2 mg/kg) or nateglinide (50 mg/kg or 80 mg/kg) was orally given. Additionally, a group on the combined use of both of an inhibitor of renal glucose reabsorption and a hypoglycemic agent was also prepared. A vehicle was orally given to a control group after glucose administration.
# Blood glucose was measured in a time course.
# [2] = test system: Type 2 diabetes model Zucker diabetic fatty rats; experiment: Insulin content in pancreas after repeated dosing in Zucker diabetic fatty rats, ELISA (Example V); format: in vivo; conditions: twice daily p.o., day 39, starved 18 hours, inhibitor A 30 mg/kg, metformin 200 mg/kg, or both, ELISA of pancreas homogenates (Fig. 5)
# Description: The agents were orally given twice daily at the same time period as in the case of the groups administered with a single one of these agents. Only a vehicle was orally given twice daily to the animals in a control group. On day 39 from the start of administration, the animals were starved for 18 hours. Then, pancreas was resected from the animals, for the assay of insulin in pancreas homogenates by ELISA, to compare the groups in terms of insulin content in pancreas.
# [3] = test system: Renal brush border membrane; experiment: Assessment of inhibitory action of glucose uptake, 14C-D-glucose (Test Example 1A); format: biochemical, rat; conditions: incubation 37 °C 30 minutes, 14C-D-glucose one minute
# Description: Test compounds were dissolved in 100 mM mannitol-10 mM HEPES/Tris, pH 7.4 to prepare solutions at various concentrations.
# Renal brush border membrane was prepared from a rat kidney, to which a solution of a test compound was added for incubation at 37 °C for 30 minutes. Then, ^14C-D-glucose was added for incubation for one minute. A solution containing 1 mM phlorizin was used to terminate the glucose uptake reaction. The radioactivity ^14C of ^14C-D-glucose incorporated in the renal brush border membrane was counted with a liquid scintillation counter. The glucose uptake independent on sodium was reduced from the glucose uptake in a control group or a test group, to calculate the inhibition intensity.
# Male Wistar rats = experiment: Evaluation of urine sugar excretion action in rats (Test Example 1); format: in vivo; conditions: 100 mg/kg p.o. in olive oil, urine collected 24 hours, per individual per day
# Description: Male Wistar rats aged 5 weeks (purchased from Charles River Japan, Inc.) were acclimatized in metabolic cages for one week, for use at this experiment. The test compounds suspended in olive oil were prepared into a 20 mg/ml solution to a dose of 5 ml per 1 kg rat body weight.
# After the rats were starved for 4 hours, the test compounds were orally given at 100 mg/kg to the rats at 11 am. Immediately after dosing until 24 hours later, urine was collected. The volume of urine was measured. Then, urine sugar concentration was assayed by glucose oxidase method, to calculate the glucose excretion into urine per individual per day.
# [4] = inhibitor A 30 mg/kg p.o., vs control group (Fig. 3)
# [5] = glibenclamide 1 mg/kg, inhibitor A 30 mg/kg, or both, p.o., vs vehicle group (Fig. 1)
smiles,measurement,setting,value
CCc1ccc(Cc2c(O[C@@H]3O[C@H](CO)[C@@H](O)[C@H](O)[C@H]3O)nn(C3CCC3)c2C(F)(F)F)cc1 [1'-cyclobutyl-4'-[(4-ethylphenyl)methyl]-5'-trifluoromethyl-1H-pyrazole-3'-o-β-D-glucopyranoside],blood glucose level 2 hours later and thereafter,glucose-loaded mice; [4],could not suppress the blood glucose level
same,hyperglycemia 60 minutes after glucose loading,glucose-loaded mice; [4],could suppress hyperglycemia
same,increase of blood glucose / hyperglycemia 30 minutes after glucose loading,glucose-loaded mice; vs control group (Fig. 3),could suppress hyperglycemia
same,pattern of glycemic suppression at elevated dose,glucose-loaded mice,did not change
same,blood glucose level,[1],significantly lowered
same,blood glucose level 120 minutes after glucose loading and thereafter,glucose-loaded rats; [5],did not lower the blood glucose level 120 minutes after glucose loading and thereafter as greatly as glibenclamide did
same,hyperglycemia / blood glucose level immediately after glucose loading (30 minutes),glucose-loaded rats; [5],suppressed hyperglycemia
same,pattern of glycemic suppression at increased dose,"glucose-loaded rats; glibenclamide 2 mg/kg or inhibitor A 60 mg/kg p.o., vs lower dose (Fig. 1)",did not change
same,insulin content in pancreas,[2],no difference was observed
"CSc1ccc(Cc2c(O[C@@H]3O[C@H](CO)[C@@H](O)[C@H](O)[C@H]3O)n[nH]c2C(F)(F)F)cc1 [Compound of Production Example 1-A, 4-((4-methylthiophenyl)methyl)-5-(trifluoromethyl)-1H-pyrazole-3-o-β-D-glucopyranoside]",Inhibition intensity (concentration of test compound),[3]; 10 µM test compound,84 % (10 µM)
"CCc1ccc(Cc2c(O[C@@H]3O[C@H](COC(=O)OC)[C@@H](O)[C@H](O)[C@H]3O)nn(C3CCC3)c2C(F)(F)F)cc1 [Compound of Production Example 2, 1'-cyclobutyl-4'-[(4-ethylphenyl)methyl]-5'-trifluoromethyl-1H-pyrazole-3'-o-(6-carbomethoxy)-β-D-glucopyranoside]",Urine sugar excretion,Male Wistar rats,656 mg
"CCc1ccc(Cc2c(O[C@@H]3O[C@H](C(=O)O)[C@@H](O)[C@H](O)[C@H]3O)n[nH]c2C(F)(F)F)cc1 [Compound of Production Example 2-A, 4-((4-ethylphenyl)methyl)-5-(trifluoromethyl)-1H-pyrazol-3-yl-β-D-glucopyranoside uronic acid]",Inhibition intensity (concentration of test compound),[3]; 100 µM test compound,30 % (100 µM)
"CCc1ccc(Cc2c(O[C@@H]3O[C@H](COC(=O)OC)[C@@H](O)[C@H](O)[C@H]3O)nn(C3CCCC3)c2C(F)(F)F)cc1 [Compound of Production Example 4, 1'-cyclopentyl-4'-[(4-ethylphenyl)methyl]-5'-trifluoromethyl-1H-pyrazole-3'-o-(6-carbomethoxy)-β-D-glucopyranoside]",Urine sugar excretion,Male Wistar rats,452 mg
CN(C)C(=N)N=C(N)N [metformin],increase of blood glucose / hyperglycemia 30 minutes after glucose loading,glucose-loaded mice; vs control group (Fig. 3),did not suppress the increase of blood glucose
same,increase of blood glucose 60 minutes later and thereafter,glucose-loaded mice; metformin 200 mg/kg p.o. (Fig. 3),suppressed the increase
same,pattern of glycemic suppression at elevated dose,glucose-loaded mice,did not change
same,insulin content in pancreas,[2],no difference was observed
